One assay has as its target ErbB4 (Homo sapiens, UniProt Q15303). Briefly: Z'-LYTE biochemical assay, ErbB4 kinase inhibition. Here is the method:
(§1) Compounds of the present invention were assayed as inhibitors of one or more of ErbB1, ErbB2, and/or ErbB4 in a manner substantially similar to the method described by Invitrogen Corp (Invitrogen Corporation, 1600 Faraday Avenue, Carlsbad, Calif., CA; http://www.invitrogen.com/downloads/Z-LYTE_Brochure—1205.pdf) using the Z′-LYTE™ biochemical assay procedure or similar biochemical assay. The Z′-LYTE™ biochemical assay employs a fluorescence-based, coupled-enzyme format and is based on the differential sensitivity of phosphorylated and non-phosphorylated peptides to proteolytic cleavage.

The next assay deals with T1, EGFR (WT) (Homo sapiens, UniProt P00533).
T1 construct: purchased Invitrogen PV3872
Nature of the assay: Omnia continuous-read kinase assay, EGFR (WT). It is filed as biochemical. The conditions noted are these: read-out: EGFR inhibtion. In outline: (§2)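 Enzyme pre-incubated 30 min at 27 °C with compound, then ATP/Y12-Sox peptide added; fluorescence (ex360/em485) read continuously 60 min in 20 mM Tris pH 7.5, 5 mM MgCl2, 0.2 mM DTT. WT: 5 nM enzyme, […]; T790M/L858R: 3 nM enzyme, […]. IC50 from initial velocities, variable-slope fit.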

The next assay addresses BTK (Homo sapiens, UniProt Q06187). Nature of the assay: Omnia assay for potency against BTK. Type of assay: biochemical. The conditions noted are these: read-out: BTK Inhibition. In outline: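 BTK (5 nM) was pre-incubated 30 min at 27° C with serially diluted compounds in Tris pH 7.5/MgCl2 buffer, then started with […] and Y5-Sox peptide 10 mM (ATP KMapp ~36 mM). Fluorescence (ex360/em485) was read continuously over 60 min. IC50 came from initial velocities using a variable-slope fit.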

Another assay concerns the target ErbB2 (Homo sapiens, UniProt P04626). Nature of the assay: Z'-LYTE biochemical assay, ErbB2 kinase inhibition. The conditions noted are these: for inhibition at 0.1 µM: @ 100 nM. On the procedure: as §1
For a further assay, the target named is ErbB1 (Homo sapiens, UniProt P00533). Nature of the assay: Z'-LYTE biochemical assay, ErbB1 kinase inhibition. The conditions noted are these: for inhibition at 0.01 µM: @ 10 nM; for inhibition at 0.1 µM: @ 100 nM. In outline:
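Fluorescence-based coupled-enzyme Z′-LYTE format: kinase phosphorylation of a peptide substrate is read by differential protease cleavage of phosphorylated versus non-phosphorylated peptide.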

The target of another assay is T2, JAK3 (Homo sapiens, UniProt P52333).
T2 sequence (P52333 1-1124): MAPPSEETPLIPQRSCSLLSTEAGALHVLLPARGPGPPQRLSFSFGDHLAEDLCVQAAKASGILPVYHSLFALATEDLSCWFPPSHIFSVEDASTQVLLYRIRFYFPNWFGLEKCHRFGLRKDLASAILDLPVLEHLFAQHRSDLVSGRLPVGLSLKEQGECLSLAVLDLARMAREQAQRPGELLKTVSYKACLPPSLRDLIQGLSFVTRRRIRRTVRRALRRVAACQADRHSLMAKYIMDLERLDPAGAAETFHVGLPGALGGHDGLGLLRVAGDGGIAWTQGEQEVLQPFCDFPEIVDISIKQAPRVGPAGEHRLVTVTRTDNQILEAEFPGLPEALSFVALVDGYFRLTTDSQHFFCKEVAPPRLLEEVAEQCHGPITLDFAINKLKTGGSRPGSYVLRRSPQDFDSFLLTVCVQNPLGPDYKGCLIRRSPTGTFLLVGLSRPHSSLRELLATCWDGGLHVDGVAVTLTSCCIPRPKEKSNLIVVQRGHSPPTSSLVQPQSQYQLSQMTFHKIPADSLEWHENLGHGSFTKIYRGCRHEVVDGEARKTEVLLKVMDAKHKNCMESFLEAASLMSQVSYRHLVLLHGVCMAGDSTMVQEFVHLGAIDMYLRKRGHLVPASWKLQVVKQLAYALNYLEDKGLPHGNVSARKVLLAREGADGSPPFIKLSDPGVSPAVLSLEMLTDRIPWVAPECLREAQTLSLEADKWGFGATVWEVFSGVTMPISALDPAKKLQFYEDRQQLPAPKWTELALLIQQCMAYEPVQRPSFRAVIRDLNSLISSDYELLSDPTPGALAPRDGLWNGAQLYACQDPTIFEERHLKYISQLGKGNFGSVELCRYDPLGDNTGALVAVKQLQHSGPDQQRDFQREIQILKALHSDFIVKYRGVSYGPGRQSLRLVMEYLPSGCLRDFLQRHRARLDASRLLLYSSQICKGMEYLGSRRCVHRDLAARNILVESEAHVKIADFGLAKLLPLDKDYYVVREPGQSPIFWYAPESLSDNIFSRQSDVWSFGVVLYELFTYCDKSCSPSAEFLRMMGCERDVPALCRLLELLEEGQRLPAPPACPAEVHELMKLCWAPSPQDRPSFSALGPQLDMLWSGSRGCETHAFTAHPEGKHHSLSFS
Nature of the assay: Omnia assay for potency against JAK3. Type of assay: biochemical. The settings on record: read-out: JAK3 Inhibition. In outline:
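Continuous-read Omnia kinase assay with 5 nM JAK3, 5 μM ATP (near apparent Km) and 5 μM Y12-Sox peptide in Tris pH 7.5/MgCl2 buffer; enzyme pre-incubated with compound 30 min at 27 °C. Fluorescence (ex360/em485) read over 60 min; initial velocities fitted against inhibitor concentration to give IC50.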

The target of the next assay is T3, EGFR (T790M/L858R) (Homo sapiens, UniProt P00533, L858R/T790M).
T3 construct: purchased BPS Bioscience 40350
Nature of the assay: Omnia continuous-read kinase assay, EGFR (T790M/L858R). It is filed as biochemical. The settings on record: read-out: EGFR (T790M/L858R) inhibiton. In outline: as §2

Assay [1] has as its system BTK signaling in Ramos cells. Briefly: BTK Ramos cellular assay (PLCγ2 phosphorylation). The conditions noted are these: Homo sapiens; Ramos cells, PLCγ2 phosphorylation; read-out: BTK Inhibition. It is filed as cell-based. On the procedure: Compounds 1-13 and (I-52) were assayed in Ramos human Burkitt lymphoma cells. Ramos cells were grown in suspension in T225 flasks, spun down, resuspended in 50 mls serum-free media and incubated for 1 hour. Compound was added to Ramos cells in serum free media to a final concentration of 1, 0.1, 0.01, or 0.001 μM. Ramos cells were incubated with compound for 1 hour, washed again and resuspended in 100 ul serum-free media. Cells were then stimulated with 1 μg of goat F(ab′)2 Anti-Human IgM and incubated on ice for 10 minutes to activate B cell receptor signaling pathways. After 10 minutes, the cells were washed once with PBS and then lysed on ice with Invitrogen Cell Extraction buffer. 16 μg total protein from lysates was loaded on gels and blots were probed for phosphorylation of the BTK substrate PLCγ2. […] Additional dose response inhibition of BTK signaling with I-13 is depicted in FIG. 9.

T1 sequence (P00533 25-1210): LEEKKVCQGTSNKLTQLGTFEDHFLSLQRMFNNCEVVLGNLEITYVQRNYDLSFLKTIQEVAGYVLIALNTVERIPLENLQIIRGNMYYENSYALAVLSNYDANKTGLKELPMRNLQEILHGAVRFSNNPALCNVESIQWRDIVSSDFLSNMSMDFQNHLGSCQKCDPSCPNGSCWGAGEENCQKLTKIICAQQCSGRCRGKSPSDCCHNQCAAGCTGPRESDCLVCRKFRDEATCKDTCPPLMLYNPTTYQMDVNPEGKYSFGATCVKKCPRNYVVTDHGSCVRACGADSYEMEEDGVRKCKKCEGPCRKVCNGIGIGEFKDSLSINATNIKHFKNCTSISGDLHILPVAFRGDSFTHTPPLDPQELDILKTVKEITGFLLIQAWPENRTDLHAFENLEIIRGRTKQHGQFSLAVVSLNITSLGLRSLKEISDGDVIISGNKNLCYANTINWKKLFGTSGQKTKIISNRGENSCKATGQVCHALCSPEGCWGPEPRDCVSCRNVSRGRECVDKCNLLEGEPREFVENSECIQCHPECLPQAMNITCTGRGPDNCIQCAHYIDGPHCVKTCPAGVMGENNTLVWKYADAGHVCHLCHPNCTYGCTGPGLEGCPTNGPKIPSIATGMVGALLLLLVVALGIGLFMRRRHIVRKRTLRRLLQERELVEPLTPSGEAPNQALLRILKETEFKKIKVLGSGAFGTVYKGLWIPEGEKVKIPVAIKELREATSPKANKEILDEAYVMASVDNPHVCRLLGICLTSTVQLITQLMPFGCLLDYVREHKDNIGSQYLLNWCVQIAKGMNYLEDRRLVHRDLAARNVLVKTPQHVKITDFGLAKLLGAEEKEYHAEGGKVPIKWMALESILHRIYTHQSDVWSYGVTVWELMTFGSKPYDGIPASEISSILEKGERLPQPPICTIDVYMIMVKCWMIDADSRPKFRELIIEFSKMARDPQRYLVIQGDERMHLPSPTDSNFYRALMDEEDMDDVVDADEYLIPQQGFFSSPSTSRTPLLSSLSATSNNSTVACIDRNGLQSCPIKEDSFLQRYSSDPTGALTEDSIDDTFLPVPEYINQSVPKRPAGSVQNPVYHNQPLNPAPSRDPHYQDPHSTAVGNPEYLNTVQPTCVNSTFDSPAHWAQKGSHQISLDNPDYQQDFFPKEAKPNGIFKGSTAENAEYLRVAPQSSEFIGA
Chain of ErbB1 (P00533 25-1210): as above
T3 sequence (P00533 25-1210 T790M/L858R): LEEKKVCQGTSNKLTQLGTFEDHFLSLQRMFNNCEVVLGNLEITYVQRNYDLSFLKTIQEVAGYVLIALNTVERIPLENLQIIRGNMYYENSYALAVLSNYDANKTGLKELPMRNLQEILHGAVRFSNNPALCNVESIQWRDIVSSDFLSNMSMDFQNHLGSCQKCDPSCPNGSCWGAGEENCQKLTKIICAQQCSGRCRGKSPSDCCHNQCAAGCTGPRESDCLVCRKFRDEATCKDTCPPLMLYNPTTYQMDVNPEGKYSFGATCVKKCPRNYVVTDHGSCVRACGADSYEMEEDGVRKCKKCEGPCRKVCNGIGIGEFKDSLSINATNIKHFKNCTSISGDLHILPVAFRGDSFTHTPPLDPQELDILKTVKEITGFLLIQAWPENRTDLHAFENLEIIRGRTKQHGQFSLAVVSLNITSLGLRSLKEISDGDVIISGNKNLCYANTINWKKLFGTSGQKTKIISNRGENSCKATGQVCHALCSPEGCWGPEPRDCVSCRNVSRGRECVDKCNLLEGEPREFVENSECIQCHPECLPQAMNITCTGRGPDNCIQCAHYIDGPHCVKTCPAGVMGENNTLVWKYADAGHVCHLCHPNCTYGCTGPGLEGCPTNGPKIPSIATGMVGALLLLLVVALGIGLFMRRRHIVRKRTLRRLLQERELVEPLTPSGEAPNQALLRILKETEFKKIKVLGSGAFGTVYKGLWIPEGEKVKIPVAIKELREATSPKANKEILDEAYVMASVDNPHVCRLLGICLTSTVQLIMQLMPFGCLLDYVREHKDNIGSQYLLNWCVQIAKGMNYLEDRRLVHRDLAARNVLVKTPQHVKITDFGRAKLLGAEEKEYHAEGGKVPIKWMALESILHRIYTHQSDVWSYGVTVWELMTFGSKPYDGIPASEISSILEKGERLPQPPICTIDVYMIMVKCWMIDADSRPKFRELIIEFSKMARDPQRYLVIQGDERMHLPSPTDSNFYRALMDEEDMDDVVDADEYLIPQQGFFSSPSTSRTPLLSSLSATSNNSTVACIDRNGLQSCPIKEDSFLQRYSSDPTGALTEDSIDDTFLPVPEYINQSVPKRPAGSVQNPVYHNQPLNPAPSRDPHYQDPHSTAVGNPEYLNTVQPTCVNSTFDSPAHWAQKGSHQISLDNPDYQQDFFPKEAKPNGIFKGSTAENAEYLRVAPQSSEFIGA
Chain of BTK (Q06187 whole entry): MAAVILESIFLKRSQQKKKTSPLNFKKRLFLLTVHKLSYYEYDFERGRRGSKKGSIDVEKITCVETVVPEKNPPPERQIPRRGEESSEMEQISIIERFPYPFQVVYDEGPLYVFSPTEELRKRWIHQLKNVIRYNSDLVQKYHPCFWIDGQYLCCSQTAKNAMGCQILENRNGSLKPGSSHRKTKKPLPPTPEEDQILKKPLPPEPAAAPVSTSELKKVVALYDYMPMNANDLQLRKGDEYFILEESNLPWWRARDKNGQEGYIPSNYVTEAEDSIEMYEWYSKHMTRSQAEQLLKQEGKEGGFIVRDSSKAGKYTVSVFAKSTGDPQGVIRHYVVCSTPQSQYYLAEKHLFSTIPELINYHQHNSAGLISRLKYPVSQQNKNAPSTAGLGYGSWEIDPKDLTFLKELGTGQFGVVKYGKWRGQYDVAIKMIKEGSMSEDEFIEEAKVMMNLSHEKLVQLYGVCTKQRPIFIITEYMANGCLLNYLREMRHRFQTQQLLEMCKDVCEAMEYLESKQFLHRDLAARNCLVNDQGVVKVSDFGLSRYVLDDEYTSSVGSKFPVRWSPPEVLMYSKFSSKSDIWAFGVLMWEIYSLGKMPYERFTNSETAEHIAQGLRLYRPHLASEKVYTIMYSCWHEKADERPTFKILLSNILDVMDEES

One may read the inhibition as the relative decrease from the control value, in per cent. The low end stands for a response near the control, the high end for a response far below the control. As for `C=CC(=O)Nc1cccc(Nc2cc(Nc3ccc(F)c(Cl)c3)ncn2)c1` [I-2, N-{3-[6-(3-chloro-4-fluorophenylamino)-pyrimidin-4-ylamino]phenyl}-2-propenamide], the inhibition at 1 µM at ErbB4 is 75%; on ErbB2 it was 96%. For the same molecule, the IC50 at EGFR (WT) was not above 10 nM; on BTK, 10 to 100 nM; at JAK3, not above 10 nM; on EGFR (T790M/L858R) it was not above 10 nM. Also, the inhibition at 0.1 µM against ErbB2 turned out to be 39%; against ErbB1, 98%. Moreover, testing at 0.01 µM against ErbB1 gave an inhibition of 75%.
Turning to `C=CS(=O)(=O)Nc1cccc(Nc2cc(Nc3ccc(F)c(Cl)c3)ncn2)c1` [I-3, N-{3-[6-(3-chloro-4-fluorophenylamino)-pyrimidin-4-ylamino]phenyl}-ethenesulfonamide], the inhibition at 1 µM came out at 95% against ErbB4 and 89% against ErbB2. Moreover, the IC50 at EGFR (WT) is not above 10 nM; at BTK, 10 to 100 nM; on JAK3, not above 10 nM; at EGFR (T790M/L858R), not above 10 nM. At ErbB1, the inhibition at 0.01 µM turned out to be 56%. At ErbB1, this molecule showed an inhibition at 0.1 µM of 96%.
In the case of `C=CC(=O)Nc1cccc(Nc2cc(Nc3cccc(C)c3)ncn2)c1` [I-4, N-{3-[6-(3-methylphenylamino)-pyrimidin-4-ylamino]phenyl}-2-propenamide], the inhibition at 1 µM came to 78% against ErbB4 and 86% on ErbB2. Further, the IC50 on EGFR (WT) was not above 10 nM; at BTK it was not above 10 nM; on JAK3 it was not above 10 nM; at EGFR (T790M/L858R) it was 10 to 100 nM. At ErbB1, this molecule had an inhibition at 0.01 µM of 100%.
`C=CS(=O)(=O)Nc1cccc(Nc2cc(Nc3cccc(C)c3)ncn2)c1` [I-5, N-{3-[6-(3-methylphenylamino)-pyrimidin-4-ylamino]phenyl}-ethenesulfonamide]: the inhibition at 1 µM against ErbB4 is 95%; against ErbB2 it was 86%. The IC50 on EGFR (WT) was not above 10 nM; at BTK it was not above 10 nM; on JAK3, not above 10 nM; on EGFR (T790M/L858R), not above 10 nM; in assay [1], 100 to 1000 nM. In addition, the inhibition at 0.01 µM at ErbB1 came out at 100%.
Turning to `C=CC(=O)Nc1cccc(Nc2cc(Nc3ccc(OCc4cccc(F)c4)c(Cl)c3)ncn2)c1` [I-6, N-{3-[6-(3-chloro-4-(3-fluorophenyl)methoxyphenylamino)-pyrimidin-4-ylamino]phenyl}-2-propenamide], the inhibition at 1 µM at ErbB4 came out at 97%; against ErbB2, 84%. For the same molecule, the IC50 was in the range of 10 to 100 nM on EGFR (WT), 100 to 1000 nM at BTK, 1000 to 10000 nM at JAK3 and 10 to 100 nM on EGFR (T790M/L858R). This molecule showed an inhibition at 0.01 µM on ErbB1 of 49%. At ErbB1, this molecule had an inhibition at 0.1 µM of 100%.
Turning to `C=CS(=O)(=O)Nc1cccc(Nc2cc(Nc3ccc(OCc4cccc(F)c4)c(Cl)c3)ncn2)c1` [I-7, N-{3-[6-(3-chloro-4-(3-fluorophenyl)methoxy-phenylamino)-pyrimidin-4-ylamino]phenyl}-ethenesulfonamide], the inhibition at 1 µM is 100% against ErbB4 and 89% against ErbB2. The IC50 at EGFR (WT) was not above 10 nM; at BTK, 10 to 100 nM; at JAK3, 100 to 1000 nM; at EGFR (T790M/L858R), 10 to 100 nM. The molecule also displayed an inhibition at 0.01 µM at ErbB1 of 53%. On ErbB1, this molecule yielded an inhibition at 0.1 µM of 100%.
As to `C=CC(=O)Nc1cccc(Nc2cc(Nc3ccc(OCc4ccccn4)c(Cl)c3)ncn2)c1` [I-16, N-(3-(6-(3-chloro-4-(pyridin-2-ylmethoxy)phenylamino)pyrimidin-4-ylamino)phenyl)-2-propenamide], the results for the inhibition at 0.01 µM on ErbB4 (@ 10 nM) and on ErbB2 (@ 10 nM) were 26% and 24%, respectively. The inhibition at 0.1 µM came to 93% against ErbB4 (@ 100 nM) and 87% on ErbB2. For the same molecule, the IC50 on EGFR (WT) is not above 10 nM; on BTK, 10 to 100 nM; at JAK3, 10 to 100 nM; on EGFR (T790M/L858R) it was 10 to 100 nM. The same molecule came in with an inhibition at 1 µM against ErbB1 of 98%.
`Cc1cccc(Nc2cc(Nc3cccc(NC(=O)/C=C/CN(C)C)c3)ncn2)c1` [I-17, (E)-N-{3-[6-(3-methylphenylamino)-pyrimidin-4-ylamino]phenyl}-4-dimethylamino-2-butenamide]: the inhibition at 1 µM against ErbB4 is 94%; at ErbB2 it was 89%; on ErbB1 it was 95%. For the same molecule, the IC50 is not above 10 nM on EGFR (WT); not above 10 nM at BTK; 10 to 100 nM at JAK3; 10 to 100 nM on EGFR (T790M/L858R); not below 1000 nM in assay [1].
Take `CN(C)C/C=C/C(=O)Nc1cccc(Nc2cc(Nc3ccc(OCc4ccccn4)c(Cl)c3)ncn2)c1` [I-19, (E)-N-(3-(6-(3-chloro-4-(pyridin-2-ylmethoxy)phenylamino)-pyrmidin-4-ylamino)phenyl)-4-(dimethylamino)but-2-enamide]: the inhibition at 1 µM against ErbB4 was 97%; against ErbB2, 98%; against ErbB1, 96%. Besides, the IC50 on EGFR (WT) is not above 10 nM; at BTK, 10 to 100 nM; at JAK3, 100 to 1000 nM; at EGFR (T790M/L858R), not above 10 nM.

(Values after patent publication US9296704B2, “Substituted pyrimidines as protein kinase inhibitors” (CELGENE AVILOMICS RESEARCH, INC., priority 2007, dated 2016).)
